Reference: US6737383B1, “Herbicidal oxadiazolidines” (priority 1999, dated 2004)

Columns and labels:
[1] = tested on: Green foxtail; assay: Test D green foxtail; format: in vivo; settings: Rate 250 g/ha; Postemergence; 0 to 100 scale
[2] = tested on: common groundsel; assay: Test D common groundsel; format: in vivo, Senecio vulgaris; settings: Postemergence, 0 to 100 scale
[3] = tested on: windgrass; assay: Test E windgrass; format: in vivo, Apera spica-venti; settings: Postemergence
Procedure: Compounds evaluated in this test were formulated in a non-phytotoxic solvent mixture which included a surfactant and applied to plants that were in the 1- to 4-leaf stage (postemergence application). A mixture of sandy loam soil and greenhouse potting mix in a 60:40 ratio was used for the postemergence test.
Plantings of these crops and weed species were adjusted to produce plants of appropriate size for the postemergence test. All plant species were grown using normal greenhouse practices. […]
Treated plants and untreated controls were maintained in a greenhouse for approximately 21 to 28 days, after which all treated plants were compared to untreated controls and visually evaluated. […]

CC(C)N(C(=O)n1oc(=O)n(C(C)C)c1=O)c1ccc(F)cc1 [Compound 131]
Plant response rating, Green foxtail [1]: 100
Plant response rating, Com. groundsel ([2]; Rate 16 g/ha, 0 no injury, 100 complete control): 90
Plant response rating, Com. groundsel ([2]; Rate 32 g/ha, 0 no injury, 100 complete control): 100
Plant response rating, Com. groundsel ([2]; Rate 64 g/ha, 0 no injury, 100 complete control): 100
Plant response rating, Com. groundsel ([2]; Rate 125 g/ha, 0 no injury, 100 complete control): 100
Plant response rating, Com. groundsel ([2]; Rate 250 g/ha): 100
Plant response rating, Windgrass ([3]; Rate 62 g/ha, 0 to 100 scale): 85
Windgrass plant response rating ([3]; Rate 250 g/ha, 0 to 100 scale where 0 is no effect and 100 is complete control): 90
